Test results taken from patent publication US20100331348A1, “TROPANE DERIVATIVES USEFUL AS PESTICIDES” (SYNGENTA CROP PROTECTION, INC., priority 2007, published 2010).
Where two headings read alike, the source gives them in different places.

Experiments:
[1] = test system: Erysiphe graminis f.sp. tritici; assay: Erysiphe graminis f.sp. tritici (wheat powdery mildew) leaf disk assay; type: in vivo; details: Blumeria graminis, foliar, 96 h, preventive, four days after inoculation, read-out: control of fungal infection, Erysiphe graminis fsp. tritici
Plutella xylostella = Plutella xylostella (Diamond back moth) artificial diet test; details: 120 h, read-out: control of Plutella xylostella
[2] = test system: Puccinia recondita f.sp. tritici; assay: Puccinia recondita f.sp. tritici (wheat brown rust) leaf disk assay; type: in vivo; details: foliar, 216 h, preventive, nine days after inoculation, read-out: control of fungal infection, Puccinia recondita f.sp. tritici
Aedes aegypti = Aedes aegypti (Yellow fever mosquito) larvae test; type: in vivo; details: 48 h
Phytophthora infestans = assay: whole plant or invertebrate; type: in vivo; details: foliar, 96 h, read-out: control of fungal infection, Phytophthora infestans
Pyricularia oryzae = assay: whole plant or invertebrate; type: in vivo; details: foliar, 96 h
[3] = read-out: control of fungal infection, Pyricularia oryzae (at least 80% list)
[4] = read-out: control of fungal infection, Pyricularia oryzae (at least 60% list)

Row | SMILES | pest or weed control at 200 ppm [1] [%] | pest or weed control at 200 ppm (Plutella xylostella) [%] | pest or weed control at 200 ppm [2] [%] | pest or weed control at 2 ppm (Aedes aegypti) [%] | pest or weed control at 200 ppm (Phytophthora infestans) [%] | pest or weed control at 200 ppm (Pyricularia oryzae; [3]) [%] | pest or weed control at 200 ppm (Pyricularia oryzae; [4]) [%]
1 | CCc1ncnc(N2C3CCC2CC(=NOCc2c(C)cc(C)cc2C)C3)c1Cl [Example 5.33] | ≥ 80 | ≥ 80 |  |  |  |  | 
2 | CCc1ncnc(N2C3CCC2CC(=NOCc2ccccc2Cl)C3)c1Cl [Example 5.28] | ≥ 80 | ≥ 80 | ≥ 80 | ≥ 80 |  |  | 
3 | CCc1ncnc(N2C3CCC2CC(=NOCc2ccc(-c4nnn(CC)n4)cc2)C3)c1Cl [Example 5.112] | ≥ 80 |  | ≥ 80 | ≥ 80 |  |  | 
4 | CC(C)c1ccc(OC2C[C@H]3CC[C@@H](C2)N3c2ncnc3sccc23)cc1 (stereo partly shown) [Example 2.17] | ≥ 80 | ≥ 80 |  |  |  |  | 
5 | CCc1ncnc(N2[C@@H]3CC[C@H]2CC(Oc2ccc4c(c2)OCO4)C3)c1Cl (stereo partly shown) [Example 2.138] |  |  |  | ≥ 80 |  |  | 
6 | CN(C)C(=O)C=C1CC2CCC(C1)N2c1ncnc2sccc12 [Example 3.25] |  |  |  |  | ≥ 80 |  | 
7 | Cc1cccc(CON=C2CC3CCC(C2)N3c2ncnc3sccc23)c1F [Example 5.223] | ≥ 80 | ≥ 80 | ≥ 80 | ≥ 80 |  |  | 
8 | CCc1ncnc(N2C3CCC2CC(=NOCc2cccc(C#N)c2)C3)c1Cl [Example 5.44] | ≥ 80 | ≥ 80 | ≥ 80 | ≥ 80 |  |  | 
9 | CCc1ncnc(N2[C@@H]3CC[C@H]2CC(Oc2c(F)c(F)c(F)c(F)c2F)C3)c1Cl (stereo partly shown) [Example 2.150] |  |  |  | ≥ 80 |  |  | 
10 | CCc1ncnc(N2[C@@H]3CC[C@H]2CC(Oc2ccc(C(C)(C)C)cc2)C3)c1Cl (stereo partly shown) [Example 2.147] |  | ≥ 80 |  |  |  |  | 
11 | Cc1ccc(OC2C[C@H]3CC[C@@H](C2)N3c2ncnc3sccc23)cc1 (stereo partly shown) [Example 1.7] |  |  | ≥ 80 | ≥ 80 |  |  | 
12 | Clc1cccc(Cl)c1CON=C1CC2CCC(C1)N2c1ncnc2sccc12 [Example 5.144] | ≥ 80 |  | ≥ 80 | ≥ 80 |  | ≥ 80 | 
13 | CCc1ncnc(N2C3CCC2CC(=NOCc2cccc(OC)c2)C3)c1Cl [Example 5.15] | ≥ 80 |  | ≥ 80 | ≥ 80 |  |  | 
14 | Fc1cccc(OC2C[C@H]3CC[C@@H](C2)N3c2ncnc3sccc23)c1F (stereo partly shown) [Example 1.24] |  | ≥ 80 | ≥ 80 | ≥ 80 |  |  | ≥ 60
15 | CCc1ncnc(N2C3CCC2CC(=NOCc2cccnc2)C3)c1Cl [Example 5.25] | ≥ 80 |  |  | ≥ 80 |  |  | 
16 | CCc1ncnc(N2[C@@H]3CC[C@H]2CC(Oc2ccc(C(C)C)cc2)C3)c1Cl (stereo partly shown) [Example 2.143] |  | ≥ 80 |  |  |  |  | 
17 | CCc1ncnc(N2C3CCC2CC(=NOCc2ccccc2Br)C3)c1Cl [Example 5.31] | ≥ 80 | ≥ 80 | ≥ 80 |  |  |  | 
18 | C#CCOc1ccc(C(C)(C)c2ccc(OC3C[C@H]4CC[C@@H](C3)N4c3ncnc4sccc34)cc2)cc1 (stereo partly shown) [Example 2.225] |  | ≥ 80 |  |  |  |  | 
19 | CCc1ncnc(N2[C@@H]3CC[C@H]2CC(NCc2ccc(Cl)cc2)C3)c1Cl (stereo partly shown) [Example 4.12] |  |  |  |  | ≥ 80 |  | 
20 | c1cc(CON=C2CC3CCC(C2)N3c2ncnc3sccc23)ccn1 [Example 5.131] | ≥ 80 |  |  | ≥ 80 |  |  | 
21 | CCc1ncnc(N2C3CCC2CC(=NOCc2c(F)cccc2F)C3)c1Cl [Example 5.61] | ≥ 80 | ≥ 80 | ≥ 80 | ≥ 80 |  |  | ≥ 60
22 | FC(F)Oc1ccccc1CON=C1CC2CCC(C1)N2c1ncnc2sccc12 [Example 5.202] | ≥ 80 |  | ≥ 80 | ≥ 80 |  |  | ≥ 60
23 | FC(F)Oc1cccc(CON=C2CC3CCC(C2)N3c2ncnc3sccc23)c1 [Example 5.204] | ≥ 80 | ≥ 80 | ≥ 80 | ≥ 80 |  |  | ≥ 60
24 | Fc1cccc(CON=C2CC3CCC(C2)N3c2ncnc3sccc23)c1 [Example 5.183] | ≥ 80 |  | ≥ 80 | ≥ 80 |  |  | 

Row | SMILES | pest or weed control at 200 ppm [1] [%] | pest or weed control at 200 ppm (Plutella xylostella) [%] | pest or weed control at 200 ppm [2] [%] | pest or weed control at 2 ppm (Aedes aegypti) [%] | pest or weed control at 200 ppm (Phytophthora infestans) [%] | pest or weed control at 200 ppm (Pyricularia oryzae; [3]) [%] | pest or weed control at 200 ppm (Pyricularia oryzae; [4]) [%]
25 | CCc1ncnc(N2C3CCC2CC(=NOCc2ccc(Cl)cc2Cl)C3)c1Cl [Example 5.50] |  | ≥ 80 |  |  |  |  | 
26 | CCc1ncnc(N2C3CCC2CC(=NOCc2cccc(C)c2)C3)c1Cl [Example 5.12] | ≥ 80 | ≥ 80 | ≥ 80 | ≥ 80 |  |  | 
27 | CCc1ncnc(N2C3CCC2CC(=NOCc2ccc(OC)c(Cl)c2Cl)C3)c1Cl [Example 5.88] | ≥ 80 | ≥ 80 | ≥ 80 | ≥ 80 |  | ≥ 80 | 
28 | FC(F)(F)c1ccccc1CON=C1CC2CCC(C1)N2c1ncnc2sccc12 [Example 5.188] | ≥ 80 | ≥ 80 | ≥ 80 | ≥ 80 |  |  | ≥ 60
29 | CCc1ncnc(N2C3CCC2CC(=NOCc2ccc(C)c(C)c2)C3)c1Cl [Example 5.27] | ≥ 80 | ≥ 80 | ≥ 80 |  |  |  | 
30 | CCc1ncnc(N2C3CCC2CC(=NOCc2ccc(C)cc2C)C3)c1Cl [Example 5.36] | ≥ 80 | ≥ 80 | ≥ 80 | ≥ 80 |  |  | 
31 | CCc1ncnc(N2C3CCC2CC(=NOCc2ccccc2C#N)C3)c1Cl [Example 5.38] | ≥ 80 |  | ≥ 80 | ≥ 80 |  |  | ≥ 60
32 | c1nc(N2[C@@H]3CC[C@H]2CC(Oc2ccc4c(c2)OCO4)C3)c2ccsc2n1 (stereo partly shown) [Example 2.29] | ≥ 80 |  |  | ≥ 80 |  |  | 
33 | Fc1ccc(C(F)(F)F)c(CON=C2CC3CCC(C2)N3c2ncnc3sccc23)c1 [Example 5.234] | ≥ 80 |  | ≥ 80 |  |  | ≥ 80 | 
34 | FC(F)(F)c1cccc(CON=C2CC3CCC(C2)N3c2ncnc3sccc23)c1 [Example 5.187] | ≥ 80 | ≥ 80 | ≥ 80 | ≥ 80 |  |  | ≥ 60
35 | CCc1ncnc(N2C3CCC2CC(=NOCc2cccc(Cl)c2F)C3)c1Cl [Example 5.79] | ≥ 80 | ≥ 80 | ≥ 80 |  |  |  | 
36 | Fc1cccc(Cl)c1CON=C1CC2CCC(C1)N2c1ncnc2sccc12 [Example 5.213] | ≥ 80 | ≥ 80 | ≥ 80 | ≥ 80 |  |  | 
37 | CCc1ncnc(N2C3CCC2CC(=NOCc2cc(F)cc(F)c2)C3)c1Cl [Example 5.57] | ≥ 80 |  | ≥ 80 |  |  | ≥ 80 | 
38 | CCc1ncnc(N2C3CCC2CC(=NOCc2c(Cl)cccc2Cl)C3)c1Cl [Example 5.34] | ≥ 80 | ≥ 80 |  |  |  |  | 
39 | COC(=O)C=C1CC2CCC(C1)N2c1ncnc2sccc12 [Example 3.28] |  |  | ≥ 80 | ≥ 80 |  | ≥ 80 | 
40 | CCc1ncnc(N2C3CCC2CC(=NOCc2ccc4ccccc4c2)C3)c1Cl [Example 5.8] | ≥ 80 | ≥ 80 | ≥ 80 |  |  |  | 
41 | CCc1ncnc(N2C3CCC2CC(=NOCc2ccccc2C(F)(F)F)C3)c1Cl [Example 5.70] | ≥ 80 | ≥ 80 | ≥ 80 | ≥ 80 |  |  | 
42 | FC(F)(F)Sc1cccc(CON=C2CC3CCC(C2)N3c2ncnc3sccc23)c1 [Example 5.239] | ≥ 80 |  | ≥ 80 |  |  | ≥ 80 | 
43 | CCc1ncnc(N2C3CCC2CC(=NOCc2c(F)cccc2Cl)C3)c1Cl [Example 5.90] | ≥ 80 |  | ≥ 80 | ≥ 80 |  |  | 
44 | CCc1ncnc(N2[C@@H]3CC[C@H]2CC(Oc2cccc(F)c2F)C3)c1Cl (stereo partly shown) [Example 1.164] | ≥ 80 | ≥ 80 | ≥ 80 | ≥ 80 |  |  | 
45 | CCc1ncnc(N2C3CCC2CC(=NOCc2ccccc2OC(F)F)C3)c1Cl [Example 5.68] | ≥ 80 | ≥ 80 | ≥ 80 | ≥ 80 |  |  | 
46 | COc1cccc(CON=C2CC3CCC(C2)N3c2ncnc3sccc23)c1 [Example 5.164] | ≥ 80 | ≥ 80 | ≥ 80 | ≥ 80 |  |  | 
47 | CCc1ncnc(N2C3CCC2CC(=NOCc2cccc(C)c2F)C3)c1Cl [Example 5.74] | ≥ 80 | ≥ 80 | ≥ 80 |  |  |  | 
